Test results from patent US10793575B2, “Oxoisoquinoline derivatives” (CARNA BIOSCIENCES, INC., priority 2016, dated 2020).

Legend:
[1] = target: dephosphorylated BTK (Homo sapiens (Human), UniProt Q06187); assay: BTK Activity Inhibition Test (mobility shift assay); type: biochemical; settings: 200 μM ATP, read-out: Inhibitory Activity on BTK
Procedure: Dephosphorylated BTK was obtained by adding λ protein phosphatase (manufactured by New England BioLabs Inc., Code No. P0753S) and MnCl2 at 10 U/μg and 2 mM, respectively, to biotinylated BTK protein BTN-BTK (Manufactured by Carna Biosciences, Inc.) enzyme solution, reacting the mixture at 4° C. overnight, and removing of λ protein phosphatase by anti […]-tag antibody agarose gel chromatography, followed by buffer exchange using a 10DG Desalting Column.
The kinase activity was measured using QuickScout Screening Assist (trade mark) MSA (commercially available kit manufactured by Carna Biosciences, Inc.) by mobility shift assay (MSA) method. The substrate of the kinase reaction was an FITC-labeled SRCtide peptide included in the kit. An assay buffer [20 mM HEPES, 0.01% Triton X-100 (Trade mark), 2 mM dithiothreitol, pH 7.5] was used and adjusted at 4 μM substrate, 20 mM MgCl2 and 200 μm ATP to obtain a substrate mixture solution. The enzyme solution was also prepared by diluting the dephosphorylated BTK to 0.46 nM using the assay buffer. The 10 mM solution of the test compound in DMSO was further diluted with DMSO to 10 levels of the concentration (0.00003 mM, 0.0001 mM, 0.0003 mM, 0.001 mM, 0.003 mM, 0.01 mM, 0.03 mM, 0.1 mM, 0.3 mM, 1 mM), each of which was subjected to a 25-fold dilution with the assay buffer to obtain the drug solutions (4% DMSO solutions). 5 μL of the drug solution or a control solution (4% DMSO-assay buffer), 5 μL of the substrate mixture solution, and 10 μL of the enzyme solution were mixed in the wells of a polypropylene 384-well plate and allowed to react at room temperature for 2 hours, and then quenched by adding 60 μL of the termination buffer included in the kit. Subsequently, the quantities of the substrates (S) and the phosphorylated substrate (P) in the reaction solution were measured using LabChip EZ Reader II system (manufactured by Caliper Life Sciences) according to the protocol of the assay kit.
(§1) The heights of the peaks of the isolated substrate and the phosphorylated substrate were represented as S and P, respectively, and a blank which contained the assay buffer instead of the enzyme solution was also measured.
(§2) The inhibition rate (%) of the test compound was calculated according to the following equation; Inhibition rate (%)=(1−(C−A)/(B−A))×100 • wherein, A, B and C represent P/(P+S) of the blank well, P/(P+S) of the control well and P/(P+S) of the compound-containing well, respectively.
(§3) The IC50 value was calculated via a regression analysis of the inhibition rate (%) and the test compound concentration (logarithmic value).

[2] = target: C481S mutant BTK [BTK(C481S)] (Homo sapiens (Human), UniProt Q06187, C481S); assay: C481S Mutant BTK Inhibitory Activity Test (mobility shift assay); type: biochemical; settings: for IC50: C481S mutant BTK, 100 μM ATP; for C481S mutation-resistance: IC50[BTK(C481S)]/IC50[BTK(WT)]
Procedure: (§4) The kinase activity was measured using QuickScout Screening Assist (trademark) MSA (commercially available kit manufactured by Carna Biosciences, Inc.) by mobility shift assay (MSA) method. The substrate of the kinase reaction was an FITC-labeled SRCtide peptide included in the kit. […] The 10 mM solution of the test compound in DMSO was further diluted with DMSO to 10 levels of the concentration (0.00003 mM, 0.0001 mM, 0.0003 mM, 0.001 mM, 0.003 mM, 0.01 mM, 0.03 mM, 0.1 mM, 0.3 mM, 1 mM), each of which was subjected to a 25-fold dilution with the assay buffer to obtain the drug solutions (4% DMSO solutions).
(§5) 5 μL of the drug solution or a control solution (4% DMSO-assay buffer), 5 μL of the substrate mixture solution, and 10 μL of the enzyme solution were mixed in the wells of a polypropylene 384-well plate and allowed to react at room temperature for 1 hour, and then quenched by adding 60 μL of the termination buffer included in the kit. Subsequently, the quantities of the substrates (S) and the phosphorylated substrate (P) in the reaction solution were measured using LabChip EZ Reader II system (manufactured by Caliper Life Sciences) according to the protocol of the assay kit.
as §1, §2, §3

[3] = target: wild type BTK [BTK(WT)] (Homo sapiens (Human), UniProt Q06187); assay: C481S Mutant BTK Inhibitory Activity Test, wild type BTK (mobility shift assay); type: biochemical; settings: 120 μM ATP
Procedure: as §4, §5, §1, §2, §3

[4] = test system: OCI-Ly10 cells; assay: Proliferation-Inhibitory Test Against Diffuse Large-Cell B-Cell Lymphoma OCI-Ly10 Strain; type: cell-based; settings: Homo sapiens, 96 hours, alamarBlue
How it was run: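 In IMDM with 20% FBS, OCI-Ly10 cells (20000 cells/well) were exposed to compound at 0.9 nM to 30000 nM (0.3% DMSO final) for 96 hours. Viability was then read with alamarBlue reagent.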

dephosphorylated BTK, sequence (Q06187 whole entry): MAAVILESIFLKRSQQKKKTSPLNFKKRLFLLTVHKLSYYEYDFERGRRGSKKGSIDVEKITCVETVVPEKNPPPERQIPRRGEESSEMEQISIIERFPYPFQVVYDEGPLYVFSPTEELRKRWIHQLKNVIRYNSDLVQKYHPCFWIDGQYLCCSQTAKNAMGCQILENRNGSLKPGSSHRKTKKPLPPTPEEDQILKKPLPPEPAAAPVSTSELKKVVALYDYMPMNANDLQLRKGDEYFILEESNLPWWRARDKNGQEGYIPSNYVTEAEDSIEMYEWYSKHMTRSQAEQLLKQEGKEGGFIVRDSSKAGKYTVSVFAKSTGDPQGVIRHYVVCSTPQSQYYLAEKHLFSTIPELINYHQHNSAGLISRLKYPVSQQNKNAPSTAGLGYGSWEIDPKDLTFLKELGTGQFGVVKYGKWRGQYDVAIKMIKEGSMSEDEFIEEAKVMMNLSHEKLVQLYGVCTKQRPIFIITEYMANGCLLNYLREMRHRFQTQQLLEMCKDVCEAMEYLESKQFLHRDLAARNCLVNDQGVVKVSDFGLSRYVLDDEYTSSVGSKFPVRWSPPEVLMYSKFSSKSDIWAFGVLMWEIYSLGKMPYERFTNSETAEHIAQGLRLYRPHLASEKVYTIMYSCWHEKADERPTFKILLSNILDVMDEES
wild type BTK [BTK(WT)], sequence (Q06187 whole entry): as above
C481S mutant BTK [BTK(C481S)], sequence (Q06187 whole entry C481S): as the sequence (Q06187 whole entry) above, with C481S counted along it

SMILES | IC50 [1] [nM] | IC50 [2] [nM] | C481S mutation-resistance [2] | IC50 [3] [nM] | IC50 [4] [nM]
Nc1nc(-c2cccc(-n3ccc4cc(C5CC5)cc(F)c4c3=O)c2CO)c2cc(-c3cccc(F)n3)[nH]c2n1 [Example 42, 2-{3-[2-amino-6-(6-fluoropyridin-2-yl)-7H-pyrrolo[2,3-d]pyrimidin-4-yl]-2-(hydroxymethyl)phenyl}-6-cyclopropyl-8-fluoroisoquinolin-1(2H)-one] | < 10 | 1.06 | 1.2 | 0.87 | 97
Nc1nc(-c2cccc(-n3ccc4cc(C5CC5)cc(F)c4c3=O)c2CO)c2cc(-c3ccnc(F)c3)[nH]c2n1 [Example 43, 2-{3-[2-amino-6-(2-fluoropyridin-4-yl)-7H-pyrrolo[2,3-d]pyrimidin-4-yl]-2-(hydroxymethyl)phenyl}-6-cyclopropyl-8-fluoroisoquinolin-1(2H)-one] | < 10 | 1.72 | 1.5 | 1.11 | 194
Nc1nc(-c2cccc(-n3ccc4cc(C5CC5)cc(F)c4c3=O)c2CO)c2cc(C3=CCN(C(=O)N4CCCC4)CC3)[nH]c2n1 [Example 88, 2-(3-{2-amino-6-[1-(pyrrolidine-1-carbonyl)-1,2,3,6-tetrahydropyridin-4-yl]-7H-pyrrolo[2,3-d]pyrimidin-4-yl}-2-(hydroxymethyl)phenyl)-6-cyclopropyl-8-fluoroisoquinolin-1(2H)-one] | – | 1.49 | 1.6 | 0.94 | 7
CCN1CC=C(c2cc3c(-c4cccc(-n5ccc6cc(C7CC7)cc(F)c6c5=O)c4CO)nc(N)nc3[nH]2)CC1 [Example 91, 2-{3-[2-amino-6-(1-ethyl-1,2,3,6-tetrahydropyridin-4-yl)-7H-pyrrolo[2,3-d]pyrimidin-4-yl]-2-(hydroxymethyl)phenyl}-6-cyclopropyl-8-fluoroisoquinolin-1(2H)-one] | – | 1.1 | 2.1 | 0.47 | 38

Further compounds by falling IC50 [2], results first:

IC50 [1] [nM] | IC50 [2] [nM] | C481S mutation-resistance [2] | IC50 [3] [nM] | IC50 [4] [nM] | SMILES
< 10 | 1.03 | 1.4 | 0.73 | 17 | CS(=O)(=O)c1ccc(-c2cc3c(-c4cccc(-n5ccc6cc(C7CC7)cc(F)c6c5=O)c4CO)nc(N)nc3[nH]2)cc1 [Example 41, 2-(3-{2-amino-6-[4-(methylsulfonyl)phenyl]-7H-pyrrolo[2,3-d]pyrimidin-4-yl}-2-(hydroxymethyl)phenyl)-6-cyclopropyl-8-fluoroisoquinolin-1(2H)-one]
– | 0.93 | 2 | 0.47 | 18 | Nc1nc(-c2cccc(-n3ccc4cc(C5CC5)cc(F)c4c3=O)c2CO)c2cc(-c3ccc(CN4CCNC(=O)C4)cc3)[nH]c2n1 [Example 66, 2-[3-(2-amino-6-{4-[(3-oxopiperazin-1-yl)methyl]phenyl}-7H-pyrrolo[2,3-d]pyrimidin-4-yl)-2-(hydroxymethyl)phenyl}-6-cyclopropyl-8-fluoroisoquinolin-1(2H)-one]
– | 0.82 | 2 | 0.41 | 6 | CCC(=O)N1CC=C(c2cc3c(-c4cccc(-n5ccc6cc(C7CC7)cc(F)c6c5=O)c4CO)nc(N)nc3[nH]2)CC1 [Example 84, 2-{3-[2-amino-6-(1-propionyl-1,2,3,6-tetrahydropyridin-4-yl)-7H-pyrrolo[2,3-d]pyrimidin-4-yl]-2-(hydroxymethyl)phenyl}-6-cyclopropyl-8-fluoroisoquinolin-1(2H)-one]
– | 0.7 | 2.1 | 0.34 | 10 | CS(=O)(=O)N1CC=C(c2cc3c(-c4cccc(-n5ccc6cc(C7CC7)cc(F)c6c5=O)c4CO)nc(N)nc3[nH]2)CC1 [Example 89, 2-(3-{2-amino-6-[1-(methylsulfonyl)-1,2,3,6-tetrahydropyridin-4-yl]-7H-pyrrolo[2,3-d]pyrimidin-4-yl}-2-(hydroxymethyl)phenyl)-6-cyclopropyl-8-fluoroisoquinolin-1(2H)-one]
– | 0.58 | 2.3 | 0.25 | 8 | Nc1nc(-c2cccc(-n3ccc4cc(C5CC5)cc(F)c4c3=O)c2CO)c2cc(C3=CCS(=O)(=O)CC3)[nH]c2n1 [Example 83, 2-{3-[2-amino-6-(1,1-dioxido-3,6-dihydro-2H-thiopyran-4-yl)-7H-pyrrolo[2,3-d]pyrimidin-4-yl]-2-(hydroxymethyl)phenyl}-6-cyclopropyl-8-fluoroisoquinolin-1(2H)-one]
